Test results published in ChEMBL document CHEMBL3885861, “Open TG-GATES”.

Species: Rattus norvegicus
Test: Open TG-GATES - Regimen: Single
Type: toxicity, organism-based, Sprague-Dawley
Design: regimen Single, gender Male, age 6 weeks
Conditions: in vivo, po, route gavage; for APTT / Bas / Eos / Fbg / Hb / Ht / Lym / MCH / MCHC / MCV / Mono / Neu / PT / Plat / RBC / Ret / WBC: tissue Blood; for KIDNEY_L / KIDNEY_R / KIDNEY_TOTAL: tissue Kidney; for LIVER: tissue Liver; for A/G / ALP / ALT / AST / BUN / CRE / Ca / Cl / DBIL / GLC / IP / K / LDH / Na / PL / RALB / TBIL / TC / TG / TP / gamma-GTP: tissue Plasma
[1] = 0 mg/kg, 3 h, dose level Control
[2] = 0 mg/kg, 6 h, dose level Control
[3] = 0 mg/kg, 9 h, dose level Control
[4] = 0 mg/kg, 24 h, dose level Control

## CC1=C(CC(=O)O)c2cc(F)ccc2/C1=C\c1ccc([S+](C)[O-])cc1 (centres undefined)
[1]
  TERMINAL_BW: 203.6 g
  APTT: 20.8 s
  Bas: 0.2%
  Eos: 0.8%
  Fbg: 275 mg/dL
  Hb: 13.9 g/dL
  Ht: 42%
  Lym: 77.4%
  MCH: 21.5 pg
  MCHC: 33.1%
  MCV: 65.1 fL
  Mono: 2.8%
  Neu: 18.6%
  PT: 14.2 s
  Plat: 116.8 x10_4/uL
  RBC: 645.6 x10_4/ul
  Ret: 7.9%
  WBC: 80.3 x10_2/uL
  KIDNEY_L: 0.8 g
  KIDNEY_R: 0.9 g
  KIDNEY_TOTAL: 1.7 g
  LIVER: 9.3 g
  A/G: 0.9
  ALP: 1495.6 IU/L
  ALT: 41.6 IU/L
  AST: 79.8 IU/L
  BUN: 10.4 mg/dL
  CRE: 0.2 mg/dL
  Ca: 10.9 mg/dL
  Cl: 105.4 meq/L
  DBIL: 0.01 mg/dL
  GLC: 168 mg/dL
  IP: 8.7 mg/dL
  K: 3.9 meq/L
  LDH: 79.6 IU/L
  Na: 142.4 meq/L
  PL: 150.6 mg/dL
  RALB: 2.6 g/dL
  TBIL: 0.024 mg/dL
  TC: 80.8 mg/dL
  TG: 65.4 mg/dL
  TP: 5.4 g/dL
  gamma-GTP: 1 IU/L
[2]
  TERMINAL_BW: 197.1 g
  APTT: 17.8 s
  Bas: 0%
  Eos: 1%
  Fbg: 281.8 mg/dL
  Hb: 13.8 g/dL
  Ht: 42.2%
  Lym: 78.6%
  MCH: 20.7 pg
  MCHC: 32.8%
  MCV: 62.9 fL
  Mono: 2.8%
  Neu: 17%
  PT: 14.2 s
  Plat: 121.9 x10_4/uL
  RBC: 670.4 x10_4/ul
  Ret: 7.7%
  WBC: 78.4 x10_2/uL
  KIDNEY_L: 0.8 g
  KIDNEY_R: 0.9 g
  KIDNEY_TOTAL: 1.7 g
  LIVER: 8 g
  A/G: 0.9
  ALP: 1387.6 IU/L
  ALT: 38.2 IU/L
  AST: 72 IU/L
  BUN: 7.4 mg/dL
  CRE: 0.2 mg/dL
  Ca: 10.6 mg/dL
  Cl: 106.4 meq/L
  DBIL: 0.002 mg/dL
  GLC: 171.8 mg/dL
  IP: 9.5 mg/dL
  K: 4.1 meq/L
  LDH: 71.6 IU/L
  Na: 142 meq/L
  PL: 142 mg/dL
  RALB: 2.5 g/dL
  TBIL: 0.03 mg/dL
  TC: 83.6 mg/dL
  TG: 37.4 mg/dL
  TP: 5.2 g/dL
  gamma-GTP: 1.6 IU/L
[3]
  TERMINAL_BW: 198.3 g
  APTT: 16.6 s
  Bas: 0%
  Eos: 0.8%
  Fbg: 308.8 mg/dL
  Hb: 13.9 g/dL
  Ht: 42.5%
  Lym: 81.6%
  MCH: 21.1 pg
  MCHC: 32.7%
  MCV: 64.8 fL
  Mono: 2%
  Neu: 15%
  PT: 13.8 s
  Plat: 120.2 x10_4/uL
  RBC: 655.8 x10_4/ul
  Ret: 7.7%
  WBC: 58.8 x10_2/uL
  KIDNEY_L: 0.9 g
  KIDNEY_R: 0.9 g
  KIDNEY_TOTAL: 1.9 g
  LIVER: 7.9 g
  A/G: 1
  ALP: 1678 IU/L
  ALT: 36.8 IU/L
  AST: 70 IU/L
  BUN: 10 mg/dL
  CRE: 0.2 mg/dL
  Ca: 10.6 mg/dL
  Cl: 107.8 meq/L
  DBIL: 0.004 mg/dL
  GLC: 182 mg/dL
  IP: 10.1 mg/dL
  K: 4.3 meq/L
  LDH: 65.6 IU/L
  Na: 142.4 meq/L
  PL: 142 mg/dL
  RALB: 2.6 g/dL
  TBIL: 0.03 mg/dL
  TC: 83 mg/dL
  TG: 47.6 mg/dL
  TP: 5.3 g/dL
  gamma-GTP: 1 IU/L
[4]
  TERMINAL_BW: 215.3 g
  APTT: 16 s
  Bas: 0%
  Eos: 1%
  Fbg: 292.8 mg/dL
  Hb: 13.7 g/dL
  Ht: 42.7%
  Lym: 77.6%
  MCH: 21 pg
  MCHC: 32.2%
  MCV: 65.2 fL
  Mono: 2.8%
  Neu: 18.2%
  PT: 13.7 s
  Plat: 140.1 x10_4/uL
  RBC: 654.6 x10_4/ul
  Ret: 7.3%
  WBC: 87.2 x10_2/uL
  KIDNEY_L: 0.9 g
  KIDNEY_R: 0.9 g
  KIDNEY_TOTAL: 1.8 g
  LIVER: 9.8 g
  A/G: 0.9
  ALP: 1542 IU/L
  ALT: 49 IU/L
  AST: 74 IU/L
  BUN: 13.2 mg/dL
  CRE: 0.2 mg/dL
  Ca: 11 mg/dL
  Cl: 106.4 meq/L
  DBIL: 0.01 mg/dL
  GLC: 182.6 mg/dL
  IP: 7.3 mg/dL
  K: 4.1 meq/L
  LDH: 75 IU/L
  Na: 142.2 meq/L
  PL: 153 mg/dL
  RALB: 2.7 g/dL
  TBIL: 0.02 mg/dL
  TC: 83.2 mg/dL
  TG: 82.2 mg/dL
  TP: 5.5 g/dL
  gamma-GTP: 1 IU/L
15 mg/kg, 3 h, dose level Low
  TERMINAL_BW: 200.6 g
  APTT: 22.7 s
  Bas: 0%
  Eos: 1%
  Fbg: 290.6 mg/dL
  Hb: 13.4 g/dL
  Ht: 40.8%
  Lym: 74.8%
  MCH: 21.4 pg
  MCHC: 32.8%
  MCV: 65.3 fL
  Mono: 3%
  Neu: 21%
  PT: 14 s
  Plat: 130.1 x10_4/uL
  RBC: 625.6 x10_4/ul
  Ret: 8.8%
  WBC: 78.5 x10_2/uL
  KIDNEY_L: 1 g
  KIDNEY_R: 0.9 g
  KIDNEY_TOTAL: 1.9 g
  LIVER: 9.3 g
  A/G: 0.9
  ALP: 1384.2 IU/L
  ALT: 40.4 IU/L
  AST: 69.6 IU/L
  BUN: 11 mg/dL
  CRE: 0.2 mg/dL
  Ca: 10.9 mg/dL
  Cl: 105 meq/L
  DBIL: 0.01 mg/dL
  GLC: 173.2 mg/dL
  IP: 8.4 mg/dL
  K: 4 meq/L
  LDH: 66.8 IU/L
  Na: 140.8 meq/L
  PL: 140.6 mg/dL
  RALB: 2.6 g/dL
  TBIL: 0.036 mg/dL
  TC: 71.2 mg/dL
  TG: 65.6 mg/dL
  TP: 5.3 g/dL
  gamma-GTP: 1 IU/L
15 mg/kg, 6 h, dose level Low
  TERMINAL_BW: 201 g
  APTT: 16.5 s
  Bas: 0%
  Eos: 1%
  Fbg: 279.2 mg/dL
  Hb: 13.5 g/dL
  Ht: 41.4%
  Lym: 74%
  MCH: 20.8 pg
  MCHC: 32.6%
  MCV: 63.7 fL
  Mono: 2.4%
  Neu: 22.4%
  PT: 14.1 s
  Plat: 115.6 x10_4/uL
  RBC: 650.4 x10_4/ul
  Ret: 8.1%
  WBC: 70.2 x10_2/uL
  KIDNEY_L: 0.9 g
  KIDNEY_R: 0.9 g
  KIDNEY_TOTAL: 1.7 g
  LIVER: 8.2 g
  A/G: 1
  ALP: 1365.6 IU/L
  ALT: 41.4 IU/L
  AST: 72.4 IU/L
  BUN: 9 mg/dL
  CRE: 0.2 mg/dL
  Ca: 10.8 mg/dL
  Cl: 106.8 meq/L
  DBIL: 0.006 mg/dL
  GLC: 172.8 mg/dL
  IP: 9.3 mg/dL
  K: 4.3 meq/L
  LDH: 73.2 IU/L
  Na: 141.4 meq/L
  PL: 137.6 mg/dL
  RALB: 2.5 g/dL
  TBIL: 0.03 mg/dL
  TC: 78.6 mg/dL
  TG: 40 mg/dL
  TP: 5.2 g/dL
  gamma-GTP: 1.4 IU/L
15 mg/kg, 9 h, dose level Low
  TERMINAL_BW: 198.6 g
  APTT: 16.9 s
  Bas: 0%
  Eos: 0.8%
  Fbg: 285.6 mg/dL
  Hb: 13.2 g/dL
  Ht: 40.7%
  Lym: 81.4%
  MCH: 21 pg
  MCHC: 32.4%
  MCV: 64.8 fL
  Mono: 2%
  Neu: 15.2%
  PT: 14.2 s
  Plat: 128.1 x10_4/uL
  RBC: 627.6 x10_4/ul
  Ret: 8.8%
  WBC: 72.2 x10_2/uL
  KIDNEY_L: 0.9 g
  KIDNEY_R: 0.9 g
  KIDNEY_TOTAL: 1.8 g
  LIVER: 7.7 g
  A/G: 0.9
  ALP: 1238.2 IU/L
  ALT: 43.4 IU/L
  AST: 74.4 IU/L
  BUN: 10.6 mg/dL
  CRE: 0.2 mg/dL
  Ca: 10.7 mg/dL
  Cl: 108 meq/L
  DBIL: 0.008 mg/dL
  GLC: 173.6 mg/dL
  IP: 9.9 mg/dL
  K: 4.1 meq/L
  LDH: 65.2 IU/L
  Na: 142.2 meq/L
  PL: 135.4 mg/dL
  RALB: 2.5 g/dL
  TBIL: 0.042 mg/dL
  TC: 76.2 mg/dL
  TG: 37.6 mg/dL
  TP: 5.2 g/dL
  gamma-GTP: 1 IU/L
15 mg/kg, 24 h, dose level Low
  TERMINAL_BW: 215 g
  APTT: 22.5 s
  Bas: 0%
  Eos: 1%
  Fbg: 310.4 mg/dL
  Hb: 14 g/dL
  Ht: 43.7%
  Lym: 77.4%
  MCH: 21 pg
  MCHC: 32%
  MCV: 65.8 fL
  Mono: 2.2%
  Neu: 19%
  PT: 13.3 s
  Plat: 125.4 x10_4/uL
  RBC: 665.4 x10_4/ul
  Ret: 7.7%
  WBC: 81.5 x10_2/uL
  KIDNEY_L: 0.9 g
  KIDNEY_R: 0.9 g
  KIDNEY_TOTAL: 1.8 g
  LIVER: 10.4 g
  A/G: 0.9
  ALP: 1898.6 IU/L
  ALT: 48 IU/L
  AST: 70.2 IU/L
  BUN: 15.4 mg/dL
  CRE: 0.2 mg/dL
  Ca: 11.2 mg/dL
  Cl: 104.6 meq/L
  DBIL: 0.01 mg/dL
  GLC: 189.6 mg/dL
  IP: 7.4 mg/dL
  K: 4.2 meq/L
  LDH: 90.8 IU/L
  Na: 141 meq/L
  PL: 176.4 mg/dL
  RALB: 2.7 g/dL
  TBIL: 0.014 mg/dL
  TC: 95 mg/dL
  TG: 134.8 mg/dL
  TP: 5.7 g/dL
  gamma-GTP: 1 IU/L
